Test results reported in US20160354443A1, “Replacement Therapy for Natriuretic Peptide Deficiencies” (priority 2014, published 2016).
Positions of bridges follow the written chain, without caps; N, C: chain ends. Non-standard residues stand in square brackets, D forms with d. Residues, ends and D or L forms follow the SMILES beside them. *: point of attachment. X1 = N=C(N)NCCC[C@H]1C(=O)N[C@@H](C(N)=O)CN1*; dNle = CCCC[C@@H](N)C(=O)O; Heptanoyl = CCCCCCC(=O)*

Assays:
[1] = Potter et al. 2009; cited from earlier work
rat NPRA = biological target: T1, rat NPRA (Rattus norvegicus, UniProt P18910); experiment: cGMP generation in HEK cells expressing rat NPRA; assay type: cell-based; conditions: mean ± SD
T1 construct: expressed in transfected cells; host or cells: HEK cell line
T1 sequence (P18910 29-1057): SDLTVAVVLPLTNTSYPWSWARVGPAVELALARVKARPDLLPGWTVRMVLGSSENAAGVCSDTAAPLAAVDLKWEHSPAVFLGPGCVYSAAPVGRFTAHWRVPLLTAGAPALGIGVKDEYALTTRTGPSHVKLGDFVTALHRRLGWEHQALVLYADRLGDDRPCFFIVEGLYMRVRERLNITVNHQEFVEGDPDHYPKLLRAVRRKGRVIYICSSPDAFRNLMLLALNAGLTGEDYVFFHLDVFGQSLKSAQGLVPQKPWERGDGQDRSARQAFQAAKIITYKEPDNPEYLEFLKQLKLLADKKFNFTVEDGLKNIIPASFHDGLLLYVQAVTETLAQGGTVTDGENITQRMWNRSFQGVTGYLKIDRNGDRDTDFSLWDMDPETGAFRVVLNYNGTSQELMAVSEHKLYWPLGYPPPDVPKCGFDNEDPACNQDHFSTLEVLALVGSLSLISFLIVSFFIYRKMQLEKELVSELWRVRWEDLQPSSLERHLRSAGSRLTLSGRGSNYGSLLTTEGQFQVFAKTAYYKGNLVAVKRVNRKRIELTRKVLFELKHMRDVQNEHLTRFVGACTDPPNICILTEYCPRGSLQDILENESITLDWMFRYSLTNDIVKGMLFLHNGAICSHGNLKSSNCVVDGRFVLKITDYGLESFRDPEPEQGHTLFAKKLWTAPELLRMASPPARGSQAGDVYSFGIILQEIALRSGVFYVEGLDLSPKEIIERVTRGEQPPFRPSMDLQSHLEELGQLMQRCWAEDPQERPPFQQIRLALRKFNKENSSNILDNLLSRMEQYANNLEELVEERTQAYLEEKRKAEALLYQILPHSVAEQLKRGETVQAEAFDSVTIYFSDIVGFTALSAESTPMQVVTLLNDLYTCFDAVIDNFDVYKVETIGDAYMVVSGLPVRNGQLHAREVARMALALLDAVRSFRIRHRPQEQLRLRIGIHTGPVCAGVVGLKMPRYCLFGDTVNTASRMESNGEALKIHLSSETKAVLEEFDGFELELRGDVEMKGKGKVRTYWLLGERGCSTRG

hNPRB (human NPRB) = biological target: T2, hNPRB (human NPRB) (Homo sapiens, UniProt P20594); experiment: NPRB functional assay (cGMP generation) in HEK cell line; assay type: cell-based; conditions: HEK293, mean ± SD, read-out: hNPRB Function (cGMP) Emax (%)
T2 construct: expressed in transfected cells; host or cells: HEK cell line
T2 sequence (P20594 23-1047): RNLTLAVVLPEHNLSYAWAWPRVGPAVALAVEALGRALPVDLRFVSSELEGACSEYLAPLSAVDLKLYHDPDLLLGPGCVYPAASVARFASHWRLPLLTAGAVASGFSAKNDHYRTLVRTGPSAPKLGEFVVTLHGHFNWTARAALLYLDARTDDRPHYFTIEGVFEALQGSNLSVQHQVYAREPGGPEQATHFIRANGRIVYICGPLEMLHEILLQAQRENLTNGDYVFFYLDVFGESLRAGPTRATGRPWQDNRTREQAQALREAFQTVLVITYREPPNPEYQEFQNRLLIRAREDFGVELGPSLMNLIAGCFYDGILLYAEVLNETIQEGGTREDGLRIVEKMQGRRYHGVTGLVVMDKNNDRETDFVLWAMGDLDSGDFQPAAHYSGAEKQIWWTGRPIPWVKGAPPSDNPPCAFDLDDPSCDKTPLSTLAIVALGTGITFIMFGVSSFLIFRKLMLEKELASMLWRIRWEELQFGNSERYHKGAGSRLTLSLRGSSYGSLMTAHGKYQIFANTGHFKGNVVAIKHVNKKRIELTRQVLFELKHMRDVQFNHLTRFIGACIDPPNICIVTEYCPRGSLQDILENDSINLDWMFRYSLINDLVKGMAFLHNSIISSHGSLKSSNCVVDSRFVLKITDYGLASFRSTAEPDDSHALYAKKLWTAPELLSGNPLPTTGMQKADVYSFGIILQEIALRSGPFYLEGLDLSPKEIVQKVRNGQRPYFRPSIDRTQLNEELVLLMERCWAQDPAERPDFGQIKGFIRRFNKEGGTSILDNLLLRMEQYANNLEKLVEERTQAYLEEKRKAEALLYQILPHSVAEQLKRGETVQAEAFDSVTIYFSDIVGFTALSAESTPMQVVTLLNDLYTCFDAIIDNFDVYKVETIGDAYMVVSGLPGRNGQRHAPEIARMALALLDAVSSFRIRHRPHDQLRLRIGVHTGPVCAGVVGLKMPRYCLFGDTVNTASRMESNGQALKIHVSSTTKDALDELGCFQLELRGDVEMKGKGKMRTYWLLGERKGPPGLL

plasma cGMP = experiment: Safety study in healthy volunteers: pharmacodynamic parameters (plasma cGMP); assay type: in vivo, human; conditions: mean ± SD
Description: (§1) In a safety study, the mimetic of formula IV was administered to healthy volunteers. Doses of 0.1, 0.3, 0.7 and 1.0 μg/kg of the mimetic of formula IV were administered.
(§2) Kel is the apparent terminal elimination rate constant, calculated by linear regression of the terminal linear portion of the log concentration versus the time curve. The plasma cGMP concentrations returned to baseline levels by approximately 8 hours after dosing following 0.7 μg/kg and 1.0 μg/kg of the mimetic of formula IV.

[2] = as above; assay type: in vivo, human; conditions: human, in vivo, mean ± SD, read-out: t½ (converted)
Description: as §1, §2

human NPRA = biological target: T3, human NPRA (Homo sapiens, UniProt P16066); experiment: cGMP generation in HEK cells expressing human NPRA; assay type: cell-based; conditions: mean ± SD
T3 sequence (P16066 33-1061): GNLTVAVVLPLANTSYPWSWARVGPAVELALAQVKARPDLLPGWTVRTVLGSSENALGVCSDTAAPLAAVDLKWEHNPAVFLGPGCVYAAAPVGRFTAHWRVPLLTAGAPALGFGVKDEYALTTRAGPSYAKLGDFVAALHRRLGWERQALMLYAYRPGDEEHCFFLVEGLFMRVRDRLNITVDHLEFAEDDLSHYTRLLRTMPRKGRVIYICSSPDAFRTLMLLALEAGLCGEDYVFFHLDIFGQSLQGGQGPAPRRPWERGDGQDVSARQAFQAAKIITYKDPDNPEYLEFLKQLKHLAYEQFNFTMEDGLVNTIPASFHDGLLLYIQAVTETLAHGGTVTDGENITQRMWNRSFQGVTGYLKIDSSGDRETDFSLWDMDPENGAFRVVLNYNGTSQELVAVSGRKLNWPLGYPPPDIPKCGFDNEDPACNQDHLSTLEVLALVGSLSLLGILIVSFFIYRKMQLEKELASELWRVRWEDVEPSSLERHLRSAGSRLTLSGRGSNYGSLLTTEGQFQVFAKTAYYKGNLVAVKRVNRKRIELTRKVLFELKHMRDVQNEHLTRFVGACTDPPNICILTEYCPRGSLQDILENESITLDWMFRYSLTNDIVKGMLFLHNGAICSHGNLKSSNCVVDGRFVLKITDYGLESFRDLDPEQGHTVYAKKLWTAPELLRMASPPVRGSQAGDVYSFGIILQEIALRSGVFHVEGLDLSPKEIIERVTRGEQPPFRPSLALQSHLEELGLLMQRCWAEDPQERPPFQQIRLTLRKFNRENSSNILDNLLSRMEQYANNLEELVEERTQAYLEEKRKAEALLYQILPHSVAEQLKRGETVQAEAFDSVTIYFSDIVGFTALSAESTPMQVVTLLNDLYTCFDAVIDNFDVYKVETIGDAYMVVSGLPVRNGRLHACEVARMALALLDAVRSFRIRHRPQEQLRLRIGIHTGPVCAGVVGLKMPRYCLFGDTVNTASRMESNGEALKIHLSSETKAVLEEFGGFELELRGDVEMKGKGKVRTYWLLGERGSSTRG
Description: Functional evaluation of natriuretic peptide mimetics was performed by measuring the accumulation of intracellular cGMP in HEK-293 cells that express recombinant hNPR-A. HEK-NPRA cells were harvested by washing and centrifugation in Cell Dissociation Buffer (Gibco, Life Technologies). Pelleted cells were resuspended in Hank's Balanced Salt Solution (HBSS) containing 10 mM Hepes (pH 7.4), 5 mM MgCl2, 200 mM L-glutamine, 1 mM 1,10-phenanthroline and BSA (0.5 mg/mL). Following centrifugation, cells were resuspended in the above buffer supplemented with 0.5 mM 3-isobutyl-1-methylxanthine (IBMX). […] The reaction was terminated by lysis of the cells with temperature shock. […] Accumulation of cGMP was measured using the cGMP Flashplate RIA (Perkin-Elmer). Data analysis and EC50 values were determined by using nonlinear regression analysis with GraphPad Prism® software.

[3] = Human clinical trial, subcutaneous formulation: half life; conditions: in vivo, sc, subcutaneously administered formulation
Description: In a human clinical trial of a subcutaneously administered formulation in which the mimetic of formula IV was the active pharmaceutical ingredient, the half life of the mimetic of formula IV was determined to be approximately 3 hours. The mimetic of formula IV lead to a mean peak increase in plasma cGMP concentration of 1.7 ng/mL at a dose of 0.3 μg/kg of the mimetic of formula IV as a single, subcutaneous injection.

| Structure (SMILES) | reported human plasma half-life [1] | Function (cGMP) Emax (% of ANP response) (rat NPRA) | Emax (hNPRB (human NPRB)) [%] | Kel (apparent terminal elimination rate constant) (plasma cGMP; dose 0.7 μg/kg) [h⁻¹] | Kel (apparent terminal elimination rate constant) (plasma cGMP; dose 1.0 μg/kg) [h⁻¹] | half-life ([2]; 0.7 ug/kg) [h] | half-life ([2]; 1 ug/kg) [h] | Emax (human NPRA; HEK293, hNPRA, read-out: hNPRA Function (cGMP) Emax (%)) [%] | Function (cGMP) Emax (% of ANP response) (human NPRA; human NPRA) | half-life [3] [h] |
| --- | --- | --- | --- | --- | --- | --- | --- | --- | --- | --- |
| CC[C@H](C)[C@@H]1NC(=O)[C@H](CCCNC(=N)N)NC(=O)[C@H](CC(=O)O)NC(=O)[C@H](CC(C)C)NC(=O)[C@H](CCCCN)NC(=O)[C@H](CC(C)C)NC(=O)CNC(=O)[C@H](Cc2ccccc2)NC(=O)[C@@H](NC(=O)CNC(=O)[C@H](CCCCN)NC(=O)[C@H](CO)NC(=O)[C@H](CC(C)C)NC(=O)CN)CSSC[C@@H](C(=O)O)NC(=O)CNC(=O)[C@H](CC(C)C)NC(=O)CNC(=O)[C@H](CO)NC(=O)[C@H](CCSC)NC(=O)[C@H](CO)NC(=O)CNC1=O [hCNP] | about 2 minutes |  |  |  |  |  |  |  |  |  |
| CCCCCCC(=O)N[C@H]1CSSC[C@@H](C(=O)N[C@@H](Cc2ccc(O)cc2)C(=O)N2C[C@H](C(N)=O)NC(=O)[C@@H]2CCCNC(=N)N)NC(=O)[C@H](CO)NC(=O)[C@H]([C@@H](C)CC)NC(=O)[C@H](CCCNC(=N)N)NC(=O)[C@H](CC(=O)O)NC(=O)[C@@H](CCCC)NC(=O)[C@H](CCCNC(=N)N)NC(=O)CNC(=O)[C@@H](C)NC(=O)[C@H](Cc2ccccc2)NC(=O)[C@H](Cc2c[nH]cn2)NC1=O [mimetic of formula IV] (Heptanoyl-CHF[dA]GR[dNle]DRISCY-X1; disulfide 1-12) |  | 98 ± 7 % of ANP response | 1 ± 1 | 0.231 ± 0.025 | 1.05 ± 1.22 | 3.03 ± 0.345 | 2.98 ± 3.61 | 94 ± 8 | 94 ± 8 % of ANP response | ~3 |
